In patent US11524966B1 (Valo Early Discovery, Inc., priority 2017, dated 2022):

Molecular target: T1, USP25 (USP25-His6, Boston Biochem E-546) (Homo sapiens, UniProt Q9UHP3)
T1 construct: His6; purchased Boston Biochem E-546
T1 sequence (Q9UHP3 1-1055): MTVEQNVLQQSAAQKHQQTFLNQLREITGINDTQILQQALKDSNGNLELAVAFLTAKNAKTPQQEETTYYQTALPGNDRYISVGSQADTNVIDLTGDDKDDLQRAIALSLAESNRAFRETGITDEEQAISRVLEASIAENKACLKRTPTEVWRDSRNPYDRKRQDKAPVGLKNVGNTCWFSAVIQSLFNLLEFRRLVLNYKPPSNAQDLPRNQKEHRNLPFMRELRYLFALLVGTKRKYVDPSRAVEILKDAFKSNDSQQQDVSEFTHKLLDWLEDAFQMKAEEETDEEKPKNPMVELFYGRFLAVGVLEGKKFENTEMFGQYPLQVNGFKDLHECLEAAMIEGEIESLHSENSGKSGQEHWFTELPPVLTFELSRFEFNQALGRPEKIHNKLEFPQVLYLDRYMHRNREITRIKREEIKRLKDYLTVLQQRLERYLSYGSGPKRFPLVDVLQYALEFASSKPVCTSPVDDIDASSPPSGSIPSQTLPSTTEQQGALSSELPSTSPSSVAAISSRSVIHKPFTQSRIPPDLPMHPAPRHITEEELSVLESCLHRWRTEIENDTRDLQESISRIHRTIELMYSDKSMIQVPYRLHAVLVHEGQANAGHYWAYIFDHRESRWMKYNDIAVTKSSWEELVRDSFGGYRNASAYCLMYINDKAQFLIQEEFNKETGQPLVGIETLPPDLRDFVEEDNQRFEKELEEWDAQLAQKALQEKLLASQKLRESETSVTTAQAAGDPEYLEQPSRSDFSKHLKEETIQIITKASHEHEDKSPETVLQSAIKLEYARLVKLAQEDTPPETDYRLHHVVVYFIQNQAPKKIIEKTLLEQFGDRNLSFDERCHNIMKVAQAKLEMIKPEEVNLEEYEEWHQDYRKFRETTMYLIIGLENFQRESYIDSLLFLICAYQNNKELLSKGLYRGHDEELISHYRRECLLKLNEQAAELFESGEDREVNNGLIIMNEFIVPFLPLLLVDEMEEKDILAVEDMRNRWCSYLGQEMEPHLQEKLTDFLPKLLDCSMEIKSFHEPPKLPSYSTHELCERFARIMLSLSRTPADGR
Test: Ubiquitin-Rhodamine 110 Assay for USP25 Activity, Example A-2
Format: biochemical
Conditions: Ubiquitin-Rhodamine 110 assay, Example A-2; read-out: USP25 A-2 IC50 range
Procedure, shortened: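 Cleavage of ubiquitin-rhodamine 110 (25 nM, well below Km) by His-tagged USP25 at 75 pM is measured fluorimetrically after 45 min at room temperature and acid quench. Inhibitors are preincubated with enzyme for 30 minutes. IC50 values come from four-parameter logistic curve fitting.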

SMILES | IC50 [µM]
Cc1ccc2c(N)c(C(=O)N[C@@H]3Cc4ccc(N5CCNCC5)nc4[C@@H](C)C3)sc2n1 (single isomer, unassigned) [Example 205] | > 2
Cc1cc(C)c2c(N)c(C(=O)N[C@H]3COc4cc(N5CC[C@H]6CNC[C@H]65)cc(F)c4C3)sc2n1 (single isomer, unassigned) [Example 222] | 0.05 to 0.2
Cc1cc(C)c2c(N)c(C(=O)N[C@H]3COc4cc(N5CC[C@@H]6CNC[C@@H]65)cc(F)c4C3)sc2n1 (single isomer, unassigned) [Example 223] | 0.05 to 0.2
CO[C@H]1CN(c2cc3c(cc2C#N)C[C@@H](NC(=O)c2sc4nc(C)ccc4c2N)CO3)C[C@@H]1N [Example 177, 3-amino-N-[(3R)-7-[(3S,4S)-3-amino-4-methoxypyrrolidin-1-yl]-6-cyano-3-4-dihydro-2H-1-benzopyran-3-yl]-6-methylthieno[2,3-b]pyridine-2-carboxamide] | 0.05 to 0.2
CO[C@H]1CN(c2ccc3c(c2C#N)CC[C@H](NC(=O)c2sc4nc(C)ccc4c2N)C3)C[C@@H]1N [Example 178, 3-amino-N-[(2S)-6-[(3S,4S)-3-amino-4-methoxypyrrolidin-1-yl]-5-cyano-1,2,3,4-tetrahydronaphthalen-2-yl]-6-methylthieno[2,3-b]pyridine-2-carboxamide] | 0.2 to 2
CO[C@H]1CN(c2ccc3c(n2)OC[C@H](NC(=O)c2sc4nc(C)cnc4c2N)C3)C[C@@H]1N [Example 181, 7-amino-N-[(3R)-7-[(3S,4S)-3-amino-4-methoxypyrrolidin-1-yl]-2H,3H,4H-pyrano[2,3-b]pyridin-3-yl]-3-methylthieno[2,3-b]pyrazine-6-carboxamide] | > 2
CCO[C@H]1CN(c2ccc3c(n2)OC[C@H](NC(=O)c2sc4nc(C)cnc4c2N)C3)C[C@@H]1N [Example 182, 7-amino-N-[(3R)-7-[(3S,4S)-3-amino-4-ethoxypyrrolidin-1-yl]-2H,3H,4H-pyrano[2,3-b]pyridin-3-yl]-3-methylthieno[2,3-b]pyrazine-6-carboxamide] | > 2
CO[C@H]1CN(c2nc3c(cc2F)C[C@@H](NC(=O)c2sc4nc(C)ccc4c2N)CC3)C[C@@H]1N [Example 183, 3-amino-N-[(6S)-2-[(3S,4S)-3-amino-4-methoxypyrrolidin-1-yl]-3-fluoro-5,6,7,8-tetrahydroquinolin-6-yl]-6-methylthieno[2,3-b]pyridine-2-carboxamide] | > 2
Cc1ccc2c(N)c(C(=O)N[C@H]3COc4cc(N5CCO[C@H]6CNC[C@H]65)ccc4C3)sc2n1 [Example 184, N-[(3R)-7-[(4aR, 7aS)-octahydropyrrolo[3,4-b]morpholin-4-yl]-3,4-dihydro-2H-1-benzopyran-3-yl]-3-amino-6-methylthieno[2,3-b]pyridine-2-carboxamide] | 0.05 to 0.2
Cc1ccc2c(N)c(C(=O)N[C@H]3COc4cc(N5CCO[C@@H]6CNC[C@@H]65)ccc4C3)sc2n1 [Example 185, N-[(3R)-7-[(4aS,7aR)-octahydropyrrolo[3,4-b]morpholin-4-yl]-3,4-dihydro-2H-1-benzopyran-3-yl]-3-amino-6-methylthieno[2,3-b]pyridine-2-carboxamide] | 0.05 to 0.2
CO[C@H]1CN(c2ccc3c(c2)CC[C@H](NC(=O)c2cnc4c(c2)C2CC2CN4)C3)C[C@@H]1N (stereo partly drawn) [Example 188, N-[(2S)-6-[(3S,4S)-3-amino-4-methoxypyrrolidin-1-yl]-1,2,3,4-tetrahydronaphthalen-2-yl]-5H,6H,6aH,7H,7aH-cyclopropa[c]1,8-naphthyridine-2-carboxamide] | > 2
CO[C@H]1CN(c2ccc3c(c2)CC[C@H](NC(=O)c2cnc4c(c2)[C@@H]2C[C@@H]2CN4)C3)C[C@@H]1N [Example 189, (6aS,7aR)-N-[(2S)-6-[(3S,4S)-3-amino-4-methoxypyrrolidin-1-yl]-1,2,3,4-tetrahydronaphthalen-2-yl]-5H,6H,6aH,7H,7aH-cyclopropa[c]1,8-naphthyridine-2-carboxamide] | > 2
CO[C@H]1CN(c2ccc3c(c2)CC[C@H](NC(=O)c2cnc4c(c2)[C@H]2C[C@H]2CN4)C3)C[C@@H]1N [Example 190, (6aR,7aS)-N-[(2S)-6-[(3S,4S)-3-amino-4-methoxypyrrolidin-1-yl]-1,2,3,4-tetrahydronaphthalen-2-yl]-5H,6H,6aH,7H,7aH-cyclopropa[c]1,8-naphthyridine-2-carboxamide] | > 2
O=C(N[C@H]1CCc2cc(N3CC4CCC(C3)N4)cc(F)c2C1)c1cnc2c(c1)[C@@H]1C[C@@H]1CN2 [Example 191, (6aS,7aR)-N-[(2S)-6-{3,8-diazabicyclo[3.2.1]octan-3-yl}-8-fluoro-1,2,3,4-tetrahydronaphthalen-2-yl]-5H,6H,6aH,7H,7aH-cyclopropa[c]1,8-naphthyridine-2-carboxamide] | > 2
O=C(N[C@H]1CCc2cc(N3CC4CCC(C3)N4)cc(F)c2C1)c1cnc2c(c1)[C@H]1C[C@H]1CN2 [Example 192, (6aR,7aS)-N-[(2S)-6-{3,8-diazabicyclo[3.2.1]octan-3-yl}-8-fluoro-1,2,3,4-tetrahydronaphthalen-2-yl]-5H,6H,6aH,7H,7aH-cyclopropa[c]1,8-naphthyridine-2-carboxamide] | 0.05 to 0.2
O=C(N[C@@H]1CCc2cc(N3CC4CCC(C3)N4)cc(F)c2C1)c1cnc2c(c1)[C@@H]1C[C@@H]1CN2 [Example 193, (6aS,7aR)-N-[(2R)-6-{3,8-diazabicyclo[3.2.1]octan-3-yl}-8-fluoro-1,2,3,4-tetrahydronaphthalen-2-yl]-5H,6H,6aH,7H,7aH-cyclopropa[c]1,8-naphthyridine-2-carboxamide] | > 2
O=C(N[C@@H]1CCc2cc(N3CC4CCC(C3)N4)cc(F)c2C1)c1cnc2c(c1)[C@H]1C[C@H]1CN2 [Example 194, (6aR,7aS)-N-[(2R)-6-{3,8-diazabicyclo[3.2.1]octan-3-yl}-8-fluoro-1,2,3,4-tetrahydronaphthalen-2-yl]-5H,6H,6aH,7H,7aH-cyclopropa[c]1,8-naphthyridine-2-carboxamide] | 0.2 to 2
N#Cc1c(N2CC3CCC(C2)N3)cc(F)c2c1CC[C@H](NC(=O)c1cnc3c(c1)[C@@H]1C[C@@H]1CN3)C2 [Example 195, (6aS,7aR)-N-[(2S)-5-cyano-6-{3,8-diazabicyclo[3.2.1]octan-3-yl}-8-fluoro-1,2,3,4-tetrahydronaphthalen-2-yl]-5H,6H,6aH,7H,7aH-cyclopropa[c]1,8-naphthyridine-2-carboxamide] | 0.05 to 0.2
N#Cc1c(N2CC3CCC(C2)N3)cc(F)c2c1CC[C@H](NC(=O)c1cnc3c(c1)[C@H]1C[C@H]1CN3)C2 [Example 196, (6aR,7aS)-N-[(2S)-5-cyano-6-{3,8-diazabicyclo[3.2.1]octan-3-yl}-8-fluoro-1,2,3,4-tetrahydronaphthalen-2-yl]-5H,6H,6aH,7H,7aH-cyclopropa[c]1,8-naphthyridine-2-carboxamide] | > 2
N#Cc1c(N2CC3CCC(C2)N3)cc(F)c2c1CC[C@@H](NC(=O)c1cnc3c(c1)[C@@H]1C[C@@H]1CN3)C2 [Example 197, (6aS,7aR)-N-[(2R)-5-cyano-6-{3,8-diazabicyclo[3.2.1]octan-3-yl}-8-fluoro-1,2,3,4-tetrahydronaphthalen-2-yl]-5H,6H,6aH,7H,7aH-cyclopropa[c]1,8-naphthyridine-2-carboxamide] | > 2
N#Cc1c(N2CC3CCC(C2)N3)cc(F)c2c1CC[C@@H](NC(=O)c1cnc3c(c1)[C@H]1C[C@H]1CN3)C2 [Example 198, (6aR,7aS)-N-[(2R)-5-cyano-6-{3,8-diazabicyclo[3.2.1]octan-3-yl}-8-fluoro-1,2,3,4-tetrahydronaphthalen-2-yl]-5H,6H,6aH,7H,7aH-cyclopropa[c]1,8-naphthyridine-2-carboxamide] | 0.2 to 2
CO[C@H]1CN(c2cc3c(c(F)c2C#N)C[C@@H](NC(=O)c2sc4nc(C)cnc4c2N)CO3)C[C@@H]1N [Example 199, 7-amino-N-[(3R)-7-[(3S,4S)-3-amino-4-methoxypyrrolidin-1-yl]-6-cyano-5-fluoro-3,4-dihydro-2H-1-benzopyran-3-yl]-3-methylthieno[2,3-b]pyrazine-6-carboxamide] | 0.05 to 0.2
CO[C@H]1CN(c2cc3c(c(F)c2C#N)C[C@@H](NC(=O)c2sc4nc(C)ccc4c2N)CO3)C[C@@H]1N [Example 200] | 0.05 to 0.2
